ChEMBL document CHEMBL2029263, “New myrsinol diterpenes from Euphorbia prolifera and their inhibitory activities on LPS-induced NO production” (Bioorg Med Chem Lett, 2012)

What was measured:
BV-2 [1] = experiment: Cytotoxicity against mouse BV2 cells at effective concentration after 20 hrs by MTT assay; type: cell-based; details: bv-2, 20 h
BV-2 [2] = experiment: Inhibition of LPS-induced NO production in mouse BV2 cells after 20 hrs by Griess assay; type: functional, cell-based; details: BV-2, 20 h

Row | SMILES | Activity (BV-2 [1]) | IC50 (BV-2 [2]) [µM]
1 | CCC(=O)O[C@@H]1[C@@H]2[C@@H](OC(C)=O)[C@@]34CO[C@@](C)([C@H](OC(C)=O)[C@@]2(O)C[C@@H]1C)[C@@H]3[C@@H]1[C@@H](C[C@]1(C)OC(C)=O)[C@@H](OC(=O)c1cccnc1)C4=O [EUPHORBIALOID G] | Non-toxic | 48.7
2 | CCC(=O)O[C@@H]1[C@@H]2[C@@H](OC(C)=O)[C@@]34CO[C@@](C)([C@H](OC(=O)c5cccnc5)[C@@]2(OC(C)=O)C[C@@H]1C)[C@@H]3[C@@H](C(C)(C)OC(C)=O)C=CC4=O [EUPHORBIALOID F] | Non-toxic | 36.5
3 | C=C(C)[C@H]1C=C[C@@H](OC(=O)c2ccccc2)[C@@]23CO[C@@](C)([C@H](OC(=O)c4cccnc4)[C@@]4(OC(C)=O)C[C@H](C)[C@H](OC(=O)CC)[C@@H]4[C@H]2OC(C)=O)[C@H]13 | Non-toxic | 74.3
4 | CC(=O)O[C@@H]1[C@H]2[C@@H](OC(=O)c3cccnc3)[C@](C)(OC(=O)C(C)C)C[C@]2(OC(C)=O)[C@H](OC(=O)c2ccccc2)[C@]2(C)OC[C@]13[C@H](OC(C)=O)C=C[C@H](C(C)(C)OC(C)=O)[C@@H]23 [EUPHORBIALOID J] | Non-toxic | 43.8
5 | CSC(=N)N |  | 13.2
6 | CCC(=O)O[C@@H]1[C@@H]2[C@@H](OC(=O)c3ccccc3)[C@@]3(COC(=O)c4cccnc4)[C@@H]([C@@H]4[C@H](C[C@H]3OC(C)=O)C4(C)C)[C@](C)(O)C(=O)[C@@]2(O)C[C@@H]1C [EUPHORBIALOID A] | Non-toxic | 19.4
7 | C=C(C)[C@H]1C=C[C@@H](OC(=O)c2cccnc2)[C@@]23CO[C@@](C)([C@H](OC(=O)c4cccnc4)[C@@]4(OC(C)=O)C[C@H](C)[C@H](OC(=O)CC)[C@@H]4[C@H]2OC(C)=O)[C@H]13 | Non-toxic | 80.2
8 | CC(=O)O[C@@H]1[C@H]2[C@@H](OC(=O)c3cccnc3)[C@@H](C)C[C@]2(OC(C)=O)[C@@H](OC(C)=O)[C@]2(C)OC[C@]13C(=O)C=C[C@H](C(C)(C)OC(C)=O)[C@@H]23 [EUPHORBIALOID E] | Non-toxic | 33.7
9 | CCC(=O)O[C@@H]1[C@@H]2[C@@H](OC(C)=O)[C@@]34CO[C@@](C)([C@H](OC(=O)c5cccnc5)[C@@]2(OC(C)=O)C[C@@H]1C)[C@@H]3[C@@H]1[C@@H](C[C@]1(C)OC(C)=O)[C@@H](OC(=O)c1ccccc1)C4=O [EUPHORBIALOID H] | Non-toxic | 64.3
10 | CCCC(=O)O[C@@H]1[C@@H]2[C@@H](OC(=O)c3ccccc3)[C@@]3(COC(=O)c4cccnc4)[C@@H]([C@@H]4[C@H](C[C@H]3OC(C)=O)C4(C)C)[C@](C)(OC(C)=O)C(=O)[C@@]2(O)C[C@@H]1C [EUPHORBIALOID D] | Non-toxic | 35.2
11 | CCC(=O)O[C@@H]1[C@@H]2[C@@H](OC(=O)c3ccccc3)[C@@]3(COC(=O)c4cccnc4)[C@@H]([C@@H]4[C@H](C[C@H]3OC(C)=O)C4(C)C)[C@](C)(OC(C)=O)C(=O)[C@@]2(O)C[C@@H]1C [EUPHORBIALOID C] | Non-toxic | 29.7
12 | CCC(=O)O[C@@H]1[C@@H]2[C@@H](OC(C)=O)[C@@]34CO[C@@](C)([C@@H](OC(=O)c5ccccc5)[C@@]2(OC(C)=O)C[C@@]1(C)OC(=O)c1cccnc1)[C@@H]3[C@@H](C(C)(C)OC(C)=O)C=C[C@H]4OC(C)=O [EUPHORBIALOID I] | Non-toxic | 41.3
13 | CC(=O)O[C@@H]1[C@@H]2[C@@H](OC(=O)c3ccccc3)[C@@]3(COC(=O)c4cccnc4)[C@@H]([C@@H]4[C@H](C[C@H]3OC(C)=O)C4(C)C)[C@](C)(O)C(=O)[C@@]2(O)C[C@@H]1C [EUPHORBIALOID B] | Non-toxic | 15.6
